Results taken from PubChem BioAssay AID192 (DTP/NCI, 2004).
Values joined by “and” are separate entries in the source; they are usually repeats but may differ in a detail not shown here. Equal values may be shown once. Toxic doses and inconclusive results are not listed.

Tested on: BDF1 mice, B16 melanoma ip, median survival T/C
Experiment: NCI In Vivo Anticancer Drug Screen. Data for tumor model B16 Melanoma (intraperitoneal) in B6D2F1 (BDF1) mice
Conditions: endpoint: median survival time, higher = longer survival
How it was run: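 Tumor-bearing mice received test compound or vehicle. Survival or tumor size was then measured in both groups. The treated-group figure was divided by the control-group figure.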

[1] = dose: 100.0 mg/kg/injection, schedule: Q01DX009 (ip), vehicle: saline with Tween-80
[2] = dose: 25.0 mg/kg/injection, schedule: Q01DX009 (ip), vehicle: saline with Tween-80
[3] = dose: 50.0 mg/kg/injection, schedule: Q01DX009 (ip), vehicle: saline with Tween-80

## CO[C@H]1C[C@](C)(O)Cc2cc3c(c(O)c21)C(=O)c1c(O)cc2c(c1C3=O)O[C@@H]1O[C@@]2(C)[C@H](O)[C@@H](N(C)C)[C@@H]1O
dose: 0.78 mg/kg/injection, schedule: Q01DX009 (ip), vehicle: other
  T/C: 110 % of control
dose: 1.56 mg/kg/injection, schedule: Q01DX009 (ip), vehicle: other
  T/C: 118 % of control
dose: 2.3 mg/kg/injection, schedule: Q01DX005 (ip), vehicle: other
  T/C: 169 % of control
dose: 2.3 mg/kg/injection, schedule: Q01DX005 (iv), vehicle: other
  T/C: 97 % of control
dose: 2.3 mg/kg/injection, schedule: Q01DX009 (ip), vehicle: other
  T/C: 194 % of control
dose: 3.12 mg/kg/injection, schedule: Q01DX009 (ip), vehicle: other
  T/C: 159 % of control
dose: 3.13 mg/kg/injection, schedule: Q01DX009 (ip), vehicle: other
  T/C: 167 % of control
dose: 4.5 mg/kg/injection, schedule: Q01DX005 (ip), vehicle: other
  T/C: 200 % of control
dose: 4.5 mg/kg/injection, schedule: Q01DX005 (iv), vehicle: other
  T/C: 110 % of control
dose: 4.5 mg/kg/injection, schedule: Q01DX005 (oral), vehicle: other
  T/C: 95 % of control
dose: 4.5 mg/kg/injection, schedule: Q01DX009 (ip), vehicle: other
  T/C: 185 % of control
dose: 4.5 mg/kg/injection, schedule: Q01DX009 (oral), vehicle: other
  T/C: 99 % of control
dose: 6.25 mg/kg/injection, schedule: Q01DX009 (ip), vehicle: other
  T/C: 173 % of control and 177 % of control and 183 % of control
dose: 9.0 mg/kg/injection, schedule: Q01DX005 (ip), vehicle: other
  T/C: 213 % of control
dose: 9.0 mg/kg/injection, schedule: Q01DX005 (iv), vehicle: other
  T/C: 112 % of control
dose: 9.0 mg/kg/injection, schedule: Q01DX005 (oral), vehicle: other
  T/C: 97 % of control
dose: 9.0 mg/kg/injection, schedule: Q01DX009 (ip), vehicle: other
  T/C: 272 % of control
dose: 9.0 mg/kg/injection, schedule: Q01DX009 (oral), vehicle: other
  T/C: 107 % of control
dose: 10.8 mg/kg/injection, schedule: Q04DX003 (ip), vehicle: lactic acid
  T/C: 203 % of control
dose: 12.5 mg/kg/injection, schedule: Q01DX009 (ip), vehicle: other
  T/C: 167 % of control and 191 % of control and 209 % of control
dose: 18.0 mg/kg/injection, schedule: Q01DX001 (ip), vehicle: other
  T/C: 158 % of control
dose: 18.0 mg/kg/injection, schedule: Q01DX001 (iv), vehicle: other
  T/C: 100 % of control
dose: 18.0 mg/kg/injection, schedule: Q01DX005 (ip), vehicle: other
  T/C: 236 % of control
dose: 18.0 mg/kg/injection, schedule: Q01DX005 (oral), vehicle: other
  T/C: 108 % of control
dose: 18.0 mg/kg/injection, schedule: Q01DX009 (oral), vehicle: other
  T/C: 116 % of control
dose: 25.0 mg/kg/injection, schedule: Q01DX001 (ip), vehicle: water
  T/C: 100 % of control
dose: 36.0 mg/kg/injection, schedule: Q01DX001 (ip), vehicle: other
  T/C: 153 % of control
dose: 36.0 mg/kg/injection, schedule: Q01DX001 (oral), vehicle: other
  T/C: 103 % of control
dose: 36.0 mg/kg/injection, schedule: Q01DX005 (oral), vehicle: other
  T/C: 121 % of control
dose: 72.0 mg/kg/injection, schedule: Q01DX001 (oral), vehicle: other
  T/C: 119 % of control

## CCn1c(O)c(C=N)c(=O)n(CC)c1=O
dose: 150.0 mg/kg/injection, schedule: Q04DX003 (ip), vehicle: Klucel (hydroxypropylcellulose) (HPC)
  T/C: 90 % of control

## CCSC(=O)N1c2ccc(OC)cc2C=CC1C#N (configuration not stated)
[1]
  T/C: 121 % of control

## O=S(=O)(CCBr)CCBr
[2]
  T/C: 93 % of control
[3]
  T/C: 93 % of control
[1]
  T/C: 98 % of control

## CCCCNCCN(CC)CC
dose: 25.0 mg/kg/injection, schedule: Q01DX009 (ip), vehicle: saline
  T/C: 100 % of control
dose: 50.0 mg/kg/injection, schedule: Q01DX009 (ip), vehicle: saline
  T/C: 100 % of control
dose: 100.0 mg/kg/injection, schedule: Q01DX009 (ip), vehicle: saline
  T/C: 98 % of control

## CCC[N+](CCC)=c1ccc2nc3c(C)cc(N(CC)CC)cc3sc-2c1
dose: 0.15 mg/kg/injection, schedule: Q01DX009 (ip), vehicle: saline
  T/C: 102 % of control
dose: 0.3 mg/kg/injection, schedule: Q01DX009 (ip), vehicle: saline
  T/C: 102 % of control
dose: 0.6 mg/kg/injection, schedule: Q01DX009 (ip), vehicle: saline with Tween-80
  T/C: 92 % of control
dose: 0.6 mg/kg/injection, schedule: Q01DX009 (ip), vehicle: saline
  T/C: 102 % of control
dose: 1.2 mg/kg/injection, schedule: Q01DX009 (ip), vehicle: saline
  T/C: 105 % of control

## CCCCN(C)/N=N/c1nc[nH]c1C(N)=O
dose: 10.0 mg/kg/injection, schedule: Q01DX009 (ip), vehicle: carboxymethylcellulose (CMC)
  T/C: 111 % of control
dose: 20.0 mg/kg/injection, schedule: Q01DX009 (ip), vehicle: carboxymethylcellulose (CMC)
  T/C: 120 % of control
[2]
  T/C: 109 % of control
[3]
  T/C: 112 % of control

## CNC(=O)c1cccc2c(Nc3ccc(NS(C)(=O)=O)cc3OC)c3cccc(C)c3nc12
dose: 1.5 mg/kg/injection, schedule: Q01DX009 (ip), vehicle: water
  T/C: 162 % of control
dose: 3.0 mg/kg/injection, schedule: Q01DX009 (ip), vehicle: water
  T/C: 201 % of control

## O=CN(O)CC(=O)O.[Zn]
dose: 5.0 mg/kg/injection, schedule: Q01DX009 (ip), vehicle: saline
  T/C: 99 % of control
dose: 10.0 mg/kg/injection, schedule: Q01DX009 (ip), vehicle: saline
  T/C: 98 % of control
dose: 20.0 mg/kg/injection, schedule: Q01DX009 (ip), vehicle: saline
  T/C: 88 % of control
